{
  "source": "paper PMC7719179",
  "about": "“Small molecule inhibition of Dynamin-dependent endocytosis targets multiple niche signals and impairs leukemia stem cells” (Nature Communications, 2020)",
  "system": "DN3a thymocytes",
  "assay": "Relative viability and LC50 on DN3a thymocytes of WT, Lmo2^Tg, Lmo2^Tg;STAT5-CA^Tg and Lmo2^Tg;N1-ICD^Tg mice, 48 h",
  "conditions": "Lmo2Tg;STAT5-CATg",
  "method": "Pre-leukemic and leukemic thymocytes were purified by flow cytometry and co-cultured on GFP-positive OP9 and OP9-DL1 stromal cell lines, as described previously. Thymocytes were co-cultured in reconstituted alpha-MEM medium (#12318, Gibco, Grand Island NY, USA) supplemented with 20% FCS (#12318), HEPES 10 mM (#15630-080), sodium pyruvate 1 mM (#11360-070), β-mercaptoethanol 55 μM (#21985-023), Glutamax 2 mM (#15750-060), 1% Penicillin/Streptomycin (#15140-122), 5 ng/mL rmFLT-3 ligand (#250-31 L, Pepro Tech), 5 ng/mL rmIL-7 (#217-17, Pepro Tech) and 25 ng/mL rmSCF (#250-03, Pepro Tech). After 48 h of co-culture, thymocytes were counted and analysed by FACS. […]\nviability of wild-type (WT), Lmo2 Tg, Lmo2Tg;STAT5-CA Tg and Lmo2Tg;N1-ICD Tg DN3a thymocytes […]\nnormalized to cells treated with vehicle (%DMSO). Mean ± SEM of n=4 biological replicates. b, […]\nthymocytes from 6-week old wild-type (WT), Lmo2 Tg, Lmo2Tg;STAT5-CATg and Lmo2Tg ;N1-ICD Tg mice. Mean ± SD of n=4 biological replicates are shown. 2-way ANOVA with Tukey’s correction test; […]\n(1 picture or pasted object on this page, not shown here)\n*P<0.05, *** P<0.001 compared to WT; #P<0.05, ##P<0.01, ###P<0.001 compared to L mo2Tg. c, Levels of pStat5 (left) after stimulation with IL-7 , as well as Hes1 expression (right) after co-culture on OP9- […]\n(0.2 µM), Ruxolitinib (0.2 µM) and DAPT (0.1 µM). Unstimulated cells were used as negative controls (dashed line). Student’s t -test, ** P<0.01, *** P<0.001 compared to unstimulated cells. MFI ± SEM, 1-way ANOVA with Tukey’s correction test; **P<0.01, *** P<0.001 compared to vehicle. d, Clonogenic assay of normal murine hematopoietic stem and progenitor cells (HSPCs) cultured in the presence […]\n± SD, Student’s t -test ( n=4) **P<0.01 compared to vehicle. e, Relative viability of wild-type (WT), […]\n2 (0.2 µM), Ruxolitinib (0.2 µM) and DAPT (0.1 µM) for 48 hours. Viability was normalized to cells treated with vehicle (%DMSO, which was reported as 100). Mean ± SEM, 2-way ANOVA with Tukey’s correction test, **P<0.01, *** P<0.001 compared to vehicle.",
  "note": "Several values for one entry are separate records, joined by “and”; a condition that tells them apart may be missing. Identical values can stand only once.",
  "data": [
    {"smiles": "CCCCCCCCNC(=O)/C(C#N)=C/c1cn(CCCN(C)C)c2ccccc12", "note": "[Dynole 34]", "values": [
      {"measurement": "Survival (% DMSO)", "value": "50.05 % DMSO and 55.36 % DMSO and 37.5 % DMSO and 40.03 % DMSO"}
    ]}
  ]
}
